Data from patent US7763624B2, “Substituted pyrazolo[3,4-d]pyrimidines as ACK-1 and LCK inhibitors” (Amgen Inc., priority 2005, dated 2010).
Read-outs that look alike come from different tables or passages of the source.

Legend:
[1] = system: C8 cells; experiment: ACK1 Cell Based Assay (survival under low serum, Cytotox One); settings: read-out: ACK1 Cell-based IC50
Description: ACK1 Cell Based Assay The ACK1 cell based assay is designed to find inhibitors of ACK1 kinase activity which would be prime candidates for the development of anticancer drugs. […] After 20 to 24 h incubation at 37° C. and 5% CO2, cell viability is determined using the Cytotox One kit (Promega) according to the manufacturer's instructions.

[2] = biological target: T1, ACK1 (Homo sapiens, UniProt Q07912); experiment: ACK1 Enzymatic Assay (PGT/autophosphorylation ELISA); format: biochemical
T1 construct: a fusion of an N-terminal (His)6 Tag with amino acids 117 to 489 of ACK1; (His)6 (N); made in house; host or cells: baculovirus infected Hi-5 insect cells
T1 sequence (Q07912 117-489): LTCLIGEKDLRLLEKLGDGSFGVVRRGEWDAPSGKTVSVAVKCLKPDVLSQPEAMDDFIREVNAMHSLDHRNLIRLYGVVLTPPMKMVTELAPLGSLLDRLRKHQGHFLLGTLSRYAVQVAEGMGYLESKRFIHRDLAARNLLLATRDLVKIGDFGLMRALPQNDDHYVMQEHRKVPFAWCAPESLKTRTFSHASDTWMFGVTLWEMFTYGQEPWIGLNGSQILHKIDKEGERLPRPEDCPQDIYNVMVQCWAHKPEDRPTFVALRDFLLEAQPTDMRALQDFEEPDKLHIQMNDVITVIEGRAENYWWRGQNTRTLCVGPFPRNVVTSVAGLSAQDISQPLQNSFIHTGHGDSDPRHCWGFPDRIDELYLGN
Description: IC50 values of compounds of the invention may be assessed as follows. The ACK1 kinase assay utilizes a protein expressed in baculovirus infected Hi-5 cells (a fusion of an N-terminal (His)6 Tag with amino acids 117 to 489 of ACK1) purified by affinity chromatography on a Ni-NTA column. The substrate for the reaction is ACK1 itself (autophosphorylation) and poly-Glutamic acid-Tyrosine (PGT (4:1), Sigma catalog #PO275). The PGT is coated to Nunc 96 well plates at 80 μg/mL overnight at 4° C. The morning after coating, the plates are washed twice, and […] reaction buffer (10 mM Hepes, pH 7.6; 20 mM MgCl2; 75 mM NaCl, 0.125% TWEEN20 (polyoxyethylene sorbitan monolaurate); 1 mM DTT) with 5 μM ATP are added to each well. Test compounds are added in […] DMSO, and the reaction is started by addition of […] kinase in assay buffer. The reaction proceeds for 2 h at room temperature. Next, the plates are washed four times, and the level of tyrosine phosphorylation in a given well is quantified by standard ELISA assay utilizing a phosphotyrosine antibody (PY20, Pierce).

[3] = biological target: T2, LCK (Homo sapiens, UniProt P06239); experiment: LCK-Homogeneous Time Resolved Fluorescent (HTRF) Kinase Assay; format: biochemical
T2 construct: 15 μL of LCK KD GST (225-509) for a final volume of 40 μL; GST
T2 sequence (P06239 225-509): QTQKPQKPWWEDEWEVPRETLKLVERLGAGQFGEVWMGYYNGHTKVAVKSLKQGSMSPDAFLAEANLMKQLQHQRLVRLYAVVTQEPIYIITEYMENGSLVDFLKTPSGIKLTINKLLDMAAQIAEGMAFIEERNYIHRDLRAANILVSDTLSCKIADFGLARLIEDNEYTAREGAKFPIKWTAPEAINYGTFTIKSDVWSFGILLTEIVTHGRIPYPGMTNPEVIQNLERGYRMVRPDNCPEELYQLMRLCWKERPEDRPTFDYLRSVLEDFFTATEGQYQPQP
Description: LCK-Homogeneous Time Resolved Fluorescent (HTRF) Kinase Assay
The LCK HTRF assay begins with LCK in the presence of ATP phosphorylating the biotinylated peptide Gastrin. The reaction incubates for 90 min. To quench the assay detection reagents are added which both stop the reaction by diluting out the enzyme and chelating the metals due to the presence of EDTA. Once the detection reagents are added the assay incubates for 30 min to allow for equilibration of the detection reagents.
Buffer conditions are as follows: 50 mM HEPES pH 7.5, 50 mM NaCl, 20 mM MgCl2, 5 mM MnCl2, 2 mM DTT, 0.05% BSA.
The assay is quenched and stopped with 160 μL of a detection reagent. Detection reagents are as follows: Buffer made of 50 mM Tris, pH 7.5, 100 mM NaCl, 3 mM EDTA, 0.05% BSA, 0.1% Tween20.
The assay plate is read in either a Discovery or a RubyStar.

[4] = ACK1-dependent C8 cells, 0.125% FCS, 20 to 24 h

Row | Molecule | IC50 [1, 4] | Ki [2] | Ki [3] | IC50 [1]
1 | 2-(3-(2,6-dimethylphenylamino)-6-(phenylamino)-1H-indazol-1-yl)-1-(4-methylpiperazin-1-yl)ethanone [Compound 70] | > 100 nM | > 100 nM | < 10 nM | 
2 | 2-(3-(2,6-dimethylphenylamino)-6-(phenylamino)-1H-indazol-1-yl)-1-(piperazin-1-yl)ethanone [Compound 71] | > 100 nM | > 100 nM | < 10 nM | 
3 | 2-(3-(2,6-dimethylphenylamino)-6-(phenylamino)-1H-indazol-1-yl)acetic acid [Compound 69] | > 100 nM | 10 to 100 nM | < 10 nM | 
4 | C=CCCn1nc(Nc2c(C)cccc2C)c2cnc(Nc3ccccc3)nc21 [Compound 33, 1-(but-3-enyl)-N^3-(2,6-dimethylphenyl)-N^6-phenyl-1H-pyrazolo[3,4-d]pyrimidine-3,6-diamine] | > 100 nM | 10 to 100 nM | < 10 nM | 
5 | Cc1cccc(C)c1Nc1nn(CCC(O)CO)c2nc(Nc3ccccc3)ncc12 (centres unmarked) [Compound 34, 4-(3-(2,6-dimethylphenylamino)-6-(phenylamino)-1H-pyrazolo[3,4-d]pyrimidin-1-yl)butane-1,2-diol] | 10 to 100 nM | 10 to 100 nM | < 10 nM | 
6 | Cc1cccc(C)c1Nc1nn(CCC2COCO2)c2nc(Nc3ccccc3)ncc12 (centres unmarked) [Compound 35, 1-(2-(1,3-dioxolan-4-yl)ethyl)-N^3-(2,6-dimethylphenyl)-N^6-phenyl-1H-pyrazolo[3,4-d]pyrimidine-3,6-diamine] | > 100 nM | 10 to 100 nM | < 10 nM | 
7 | Cc1cccc(C)c1Nc1nn(CCCO)c2nc(Nc3ccccc3)ncc12 [Compound 37, 3-(3-(2,6-dimethylphenylamino)-6-(phenylamino)-1H-pyrazolo[3,4-d]pyrimidin-1-yl)propan-1-ol] | > 100 nM | 10 to 100 nM | < 10 nM | 
8 | Cc1cccc(C)c1Nc1nn(CCCN(C)C)c2nc(Nc3ccccc3)ncc12 [Compound 38, 1-(3-(Dimethylamino)propyl)-N^3-(2,6-dimethylphenyl)-N^6-phenyl-1H-pyrazolo[3,4-d]pyrimidine-3,6-diamine] | 10 to 100 nM | 10 to 100 nM | < 10 nM | 
9 | CNCCCn1nc(Nc2c(C)cccc2C)c2cnc(Nc3ccccc3)nc21 [Compound 39, N^3-(2,6-dimethylphenyl)-1-(3-(methylamino)propyl)-N^6-phenyl-1H-pyrazolo[3,4-d]pyrimidine-3,6-diamine] | > 100 nM | 10 to 100 nM | < 10 nM | 
10 | CCN(CC)CCCn1nc(Nc2c(C)cccc2C)c2cnc(Nc3ccccc3)nc21 [Compound 40, 1-(3-(diethylamino)propyl)-N^3-(2,6-dimethylphenyl)-N^6-phenyl-1H-pyrazolo[3,4-d]pyrimidine-3,6-diamine] | > 100 nM | 10 to 100 nM | < 10 nM | 
11 | Cc1cccc(C)c1Nc1nn(CCCN2CCCC2)c2nc(Nc3ccccc3)ncc12 [Compound 41, N^3-(2,6-dimethylphenyl)-N^6-phenyl-1-(3-(pyrrolidin-1-yl)propyl)-1H-pyrazolo[3,4-d]pyrimidine-3,6-diamine] | > 100 nM | 10 to 100 nM | < 10 nM | 
12 | Cc1cccc(C)c1Nc1nn(CCC(O)CN(C)C)c2nc(Nc3ccccc3)ncc12 (centres unmarked) [Compound 43, 1-(dimethylamino)-4-(3-(2,6-dimethylphenylamino)-6-(phenylamino)-1H-pyrazolo[3,4-d]pyrimidin-1-yl)butan-2-ol] | > 100 nM | 10 to 100 nM | < 10 nM | 
13 | CCN(CC)CC(O)CCn1nc(Nc2c(C)cccc2C)c2cnc(Nc3ccccc3)nc21 (centres unmarked) [Compound 44, 1-(diethylamino)-4-(3-(2,6-dimethylphenylamino)-6-(phenylamino)-1H-pyrazolo[3,4-d]pyrimidin-1-yl)butan-2-ol] | > 100 nM | > 100 nM | < 10 nM | 
14 | Cc1cccc(C)c1Nc1nn(CCC(O)CN2CCCC2)c2nc(Nc3ccccc3)ncc12 (centres unmarked) [Compound 45, 4-(3-(2,6-dimethylphenylamino)-6-(phenylamino)-1H-pyrazolo[3,4-d]pyrimidin-1-yl)-1-(pyrrolidin-1-yl)butan-2-ol] | > 100 nM | > 100 nM | < 10 nM | 
15 | Cc1cccc(C)c1Nc1nn(CCC(C)O)c2nc(Nc3ccccc3)ncc12 (centres unmarked) [Compound 46, 4-(3-(2,6-dimethylphenylamino)-6-(phenylamino)-1H-pyrazolo[3,4-d]pyrimidin-1-yl)butan-2-ol] | > 100 nM | 10 to 100 nM | < 10 nM | 
16 | Cc1cccc(C)c1Nc1nn(CCCN2CCCCC2)c2nc(Nc3ccccc3)ncc12 [Compound 48, N^3-(2,6-Dimethyl-phenyl)-N^6-phenyl-1-(3-piperidin-1-yl-propyl)-1H-pyrazolo[3,4-d]pyrimidine-3,6-diamine] | > 100 nM | > 100 nM | < 10 nM | 
17 | Cc1cccc(C)c1Nc1nn(CCCN2CCCCC2)c2nc(Nc3ccc(N4CCNCC4)cc3)ncc12 [Compound 49, N^3-(2,6-Dimethyl-phenyl)-N^6-(4-piperazin-1-yl-phenyl)-1-(3-piperidin-1-yl-propyl)-1H-pyrazolo[3,4-d]pyrimidine-3,6-diamine] | > 100 nM | 10 to 100 nM | < 10 nM | 
18 | Cc1cccc(C)c1Nc1nn(CCCN2CCCCC2)c2nc(Nc3ccc(N4CCN(C)CC4)cc3)ncc12 [Compound 50, N^3-(2,6-Dimethyl-phenyl)-N^6-[4-(4-methyl-piperazin-1-yl)-phenyl]-1-(3-piperidin-1-yl-propyl)-1H-pyrazolo[3,4-d]pyrimidine-3,6-diamine] | 10 to 100 nM | 10 to 100 nM | < 10 nM | 
19 | Cc1cccc(C)c1Nc1nn(CCN2CCOCC2)c2nc(Nc3ccccc3)ncc12 [Compound 51, N^3-(2,6-Dimethyl-phenyl)-1-(2-morpholin-4-yl-ethyl)-N^6-phenyl-1H-pyrazolo[3,4-d]pyrimidine-3,6-diamine] |  | 10 to 100 nM | < 10 nM | > 100 nM
20 | COCCOc1ccc(Nc2ncc3c(Nc4c(C)cccc4C)nn(CCN4CCOCC4)c3n2)cc1 [Compound 52, N^3-(2,6-Dimethyl-phenyl)-N^6-[4-(2-methoxy-ethoxy)-phenyl]-1-(2-morpholin-4-yl-ethyl)-1H-pyrazolo[3,4-d]pyrimidine-3,6-diamine] | > 100 nM | 10 to 100 nM | < 10 nM | 
21 | Cc1cccc(C)c1Nc1nn(CCN2CCOCC2)c2nc(Nc3ccc(N4CCN(C)CC4)cc3)ncc12 [Compound 53, N^3-(2,6-dimethyl-phenyl)-N^6-[4-(4-methyl-piperazin-1-yl)-phenyl]-1-(2-morpholin-4-yl-ethyl)-1H-pyrazolo[3,4-d]pyrimidine-3,6-diamine] | > 100 nM | 10 to 100 nM | < 10 nM | 
22 | COCCOc1ccc(Nc2ncc3c(Nc4c(C)cccc4C)nn(CCC(C)(C)OC)c3n2)cc1 [Compound 54, N^3-(2,6-Dimethyl-phenyl)-N-6-[4-(2-methoxy-ethoxy)-phenyl]-1-(3-methoxy-3-methyl-butyl)-1H-pyrazolo[3,4-d]pyrimidine-3,6-diamine] | > 100 nM | 10 to 100 nM | < 10 nM | 
23 | COC(C)(C)CCn1nc(Nc2c(C)cccc2C)c2cnc(Nc3ccc(N4CCNCC4)cc3)nc21 [Compound 56, N^3-(2,6-Dimethyl-phenyl)-1-(3-methoxy-3-methylbutyl)-N^6-(4-piperazin-1-yl-phenyl)-1H-pyrazolo[3,4-d]pyrimidine-3,6-diamine] | < 10 nM |  | < 10 nM | 
24 | CNc1ncc2c(Nc3c(Cl)cccc3Cl)nn(CCC(C)(C)OC)c2n1 [Compound 83, N^3-(2,6-dichlorophenyl)-1-(3-methoxy-3-methylbutyl)-N^6-methyl-1H-pyrazolo[3,4-d]pyrimidine-3,6-diamine] |  | > 100 nM | < 10 nM | 
25 | CNc1ncc2c(Nc3c(Cl)cccc3Cl)nn(CCC(C)(C)OC)c2n1 [Compound 90, N^3-(2,6-dichlorophenyl)-1-(3-methoxy-3-methylbutyl)-N^5-methyl-1H-pyrazolo[3,4-d]pyrimidine-3,6-diamine] | > 100 nM |  |  | 
